Test results taken from ChEMBL document CHEMBL1135912, “GBR compounds and mepyramines as cocaine abuse therapeutics: chemometric studies on selectivity using grid independent descriptors (GRIND)” (J Med Chem, 2002).
Several values for one entry are separate records, joined by “and”; a condition that tells them apart may be missing. Identical values can stand only once.

Assays:
Type in all cases: cell-based
[1] = target: Sodium-dependent serotonin transporter (Homo sapiens) (UniProt P31645); experiment: Inhibition of [125I]RTI-55 binding to human SERT in clonal cells
Sequence of Sodium-dependent serotonin transporter (Homo sapiens) (P31645 whole entry, looked up): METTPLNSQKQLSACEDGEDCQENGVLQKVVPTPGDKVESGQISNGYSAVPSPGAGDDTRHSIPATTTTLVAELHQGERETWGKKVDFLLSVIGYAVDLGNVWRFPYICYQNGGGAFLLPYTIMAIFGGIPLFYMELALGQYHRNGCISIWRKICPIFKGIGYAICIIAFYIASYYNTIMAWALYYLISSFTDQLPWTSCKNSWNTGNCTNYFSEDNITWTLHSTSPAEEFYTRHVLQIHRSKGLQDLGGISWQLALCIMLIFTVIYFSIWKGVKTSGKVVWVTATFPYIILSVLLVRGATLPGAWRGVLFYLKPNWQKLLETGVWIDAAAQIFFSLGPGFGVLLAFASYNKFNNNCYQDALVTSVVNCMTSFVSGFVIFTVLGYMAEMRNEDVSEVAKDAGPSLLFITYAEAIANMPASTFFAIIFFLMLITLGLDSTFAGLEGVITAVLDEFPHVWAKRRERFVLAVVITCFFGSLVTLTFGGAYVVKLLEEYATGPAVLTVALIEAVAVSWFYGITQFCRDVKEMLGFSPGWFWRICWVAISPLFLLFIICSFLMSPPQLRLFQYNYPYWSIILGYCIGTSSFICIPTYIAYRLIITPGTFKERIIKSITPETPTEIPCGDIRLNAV

[2] = target: Sodium-dependent dopamine transporter (Homo sapiens) (UniProt Q01959); experiment: Inhibition of radioligand [125I]RTI-55 binding to human Dopamine transporter in clonal cells
Sequence of Sodium-dependent dopamine transporter (Homo sapiens) (Q01959 whole entry): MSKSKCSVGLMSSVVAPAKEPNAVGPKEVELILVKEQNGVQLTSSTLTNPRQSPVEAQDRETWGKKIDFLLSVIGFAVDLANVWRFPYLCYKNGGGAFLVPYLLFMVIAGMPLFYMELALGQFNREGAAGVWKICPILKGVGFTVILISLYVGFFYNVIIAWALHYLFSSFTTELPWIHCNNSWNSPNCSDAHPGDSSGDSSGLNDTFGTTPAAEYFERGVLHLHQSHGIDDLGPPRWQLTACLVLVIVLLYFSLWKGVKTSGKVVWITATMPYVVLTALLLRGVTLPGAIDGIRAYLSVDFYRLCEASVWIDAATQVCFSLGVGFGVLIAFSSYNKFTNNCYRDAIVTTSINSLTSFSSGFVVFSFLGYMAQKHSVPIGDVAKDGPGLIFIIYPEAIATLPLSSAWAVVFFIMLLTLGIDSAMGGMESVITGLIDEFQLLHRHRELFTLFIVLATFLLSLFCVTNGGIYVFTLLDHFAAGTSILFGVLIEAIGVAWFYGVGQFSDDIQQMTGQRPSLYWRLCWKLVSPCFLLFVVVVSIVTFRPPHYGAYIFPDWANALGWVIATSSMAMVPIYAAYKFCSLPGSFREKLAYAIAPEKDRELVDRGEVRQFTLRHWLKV

[3] = target: Sodium-dependent dopamine transporter (Homo sapiens) (UniProt Q01959); experiment: Inhibition of [3H]dopamine uptake in HEK293 cells expressing recombinant Dopamine transporter

SMILES | pKD [1] | pKD [2] | Log 1/C [3]
Clc1ccc(C(OCCN2CCN(C/C=C/c3ccccc3)CC2)c2ccc(Cl)cc2)cc1 | 6.48 | 7.42 | 6.62
C(=C\c1ccccc1)/CN1CCN(CCN(Cc2ccccc2)c2ccccn2)CC1 | 6.17 | 6 | 6.1
Fc1ccc(C(OCCN2CCN(C/C=C/c3ccccc3)CC2)c2ccc(F)cc2)cc1 (stereo in doubt; 15) | 6.44 | 8.11 | 7.08
O=C(/C=C/c1c(Cl)cccc1Cl)N1CCN(CCOC(c2ccc(F)cc2)c2ccc(F)cc2)CC1 | 6.68 | 5.82 | –
Fc1ccc(CN(CCN2CCN(CCCc3ccccc3)CC2)c2ccccn2)cc1 | 6.64 | 7.19 | 6.24
Brc1ccc(CN(CCN2CCN(CCCc3ccccc3)CC2)c2ccc(Br)cc2)cc1 | 5.79 | 6.01 | –
c1ccc(CCCN2CCN(CCCN(Cc3ccccc3)c3ccccc3)CC2)cc1 | – | – | 6.07 and 5.83
Cc1ccc(/C=C/C(=O)N2CCN(CCOC(c3ccc(F)cc3)c3ccc(F)cc3)CC2)cc1 | 6.71 | 6.1 | 5.21
Fc1ccc(C(OCCN2CCN(Cc3ccccc3)CC2)c2ccc(F)cc2)cc1 | 6.74 | 7.01 | 6.12
c1ccc(CCCN2CCN(CCN(Cc3ccccc3)c3ccccn3)CC2)cc1 | 6.28 | 7.04 | 6.91
COc1ccc(CN(CCN2CCN(CCCc3ccccc3)CC2)c2ccccn2)cc1 | 6.79 | 6.66 | 6.57
O=C(/C=C/c1ccccc1Cl)N1CCN(CCOC(c2ccc(F)cc2)c2ccc(F)cc2)CC1 | 6.77 | 6.14 | 5.24
Fc1ccc(CN(CCCN2CCN(CCCc3ccccc3)CC2)c2ccccn2)cc1 | 6.55 | 7.95 | 6.91
c1ccc(CCCN2CCN(CCCCN(Cc3ccccc3)c3ccccc3)CC2)cc1 | 6.88 | 7.86 | 5.76
O=C(/C=C/c1ccc(Cl)cc1)N1CCN(CCOC(c2ccc(F)cc2)c2ccc(F)cc2)CC1 | 7.14 | 6.37 | 5.44
Fc1ccc(C(OCCN2CCN(C/C=C/c3ccccc3)CC2)c2ccccc2)cc1 (stereo not drawn) | 6.67 | 7.48 | 7.1
Fc1ccc(/C=C/CN2CCN(CCOC(c3ccc(F)cc3)c3ccc(F)cc3)CC2)cc1 | 6.64 | 8.41 | 6.96
Fc1ccc(C(OCCN2CCN(C/C=C/c3ccccc3)CC2)c2ccc(Cl)cc2Cl)cc1 (stereo not drawn) | 6.28 | 7.18 | 5.86
Fc1ccc(C(OCCN2CCN(CCCc3ccccc3)CC2)c2ccccc2)cc1 (stereo not drawn) | 6.21 | 7.69 | 7.8
Cc1ccc(C(OCCN2CCN(C/C=C/c3ccccc3)CC2)c2ccccc2)cc1 (stereo not drawn) | 5.95 | 6.95 | 6.78
Fc1ccc(CN(CCN2CCN(CCCc3ccccc3)CC2)c2ccc(F)cc2)cc1 | 6.57 | 7.28 | –
C(=C\c1ccccc1)/CN1CCN(CCN(Cc2ccccc2)c2ccccc2)CC1 | 6.22 | 6.35 | 6.74
COc1ccc(N(CCN2CCN(C/C=C/c3ccccc3)CC2)Cc2ccccc2)cc1 | 6.55 | – | –
Fc1ccc(CCCN2CCN(CCOC(c3ccccc3)c3ccc(F)cc3)CC2)cc1 (stereo not drawn) | 6.33 | 7.51 | 7.49
COc1ccc(CN(CCN2CCN(C/C=C/c3ccccc3)CC2)c2ccccn2)cc1 | 6.64 | 5.66 | –
O=C(CCCN1CCN(CCCc2ccccc2)CC1)N(Cc1ccccc1)c1ccccc1 | 6.28 | 7.56 | 7.12
Fc1ccc(/C=C/CN2CCN(CCOC(c3ccccc3)c3ccccc3)CC2)cc1 | 5.88 | 7.8 | 7.26

SMILES | pKD [1] | pKD [2] | Log 1/C [3]
O=C(CCCCN1CCN(CCCc2ccccc2)CC1)N(Cc1ccccc1)c1ccccc1 | 6.69 | 7.24 | 6.92
COc1ccc(/C=C/CN2CCN(CCOC(c3ccc(F)cc3)c3ccc(F)cc3)CC2)cc1 | 6.43 | 7.19 | 6.47
Cc1ccc(/C=C/CN2CCN(CCOC(c3ccc(F)cc3)c3ccc(F)cc3)CC2)cc1 | 6.18 | 7.32 | 6.43
Fc1ccc(CCCN2CCN(CCOC(c3ccc(F)cc3)c3ccc(F)cc3)CC2)cc1 | 6.44 | 8.25 | 6.42
Fc1ccc(C(OCCN2CCN(C/C=C/Cc3ccccc3)CC2)c2ccc(F)cc2)cc1 | 7.14 | 8.29 | 6.86
COc1ccc(OC)c(/C=C/CN2CCN(CCOC(c3ccc(F)cc3)c3ccc(F)cc3)CC2)c1 | 6.74 | 8.42 | 6.43
Fc1ccc(C(OCCN2CCN(C/C=C/c3ccccc3)CC2)c2ccc(F)cc2)cc1 (stereo in doubt; 26) | 6.02 | 6.39 | 6.97
Fc1ccc(C(OCCN2CCN(C/C=C/c3ccccc3)CC2)c2ccc(F)cc2)cc1 (stereo in doubt; 24) | 7.79 | 7.76 | 8.38
Fc1ccc(CCCN2CCN(CCOC(c3ccccc3)c3ccccc3)CC2)cc1 | 5.74 | 7.4 | 6.41
Fc1ccc(C(OCCN2CCN(C/C=C/c3ccccc3)CC2)c2ccc(Cl)cc2)cc1 (stereo not drawn) | 6.72 | 8.41 | 6.7
COc1ccc(/C=C/C(=O)N2CCN(CCOC(c3ccc(F)cc3)c3ccc(F)cc3)CC2)cc1 | 6.85 | 6.31 | 5.87
COc1ccc(CN(CCCN2CCN(CCCc3ccccc3)CC2)c2ccccn2)cc1 | 7.23 | 7.8 | 7.08
Fc1ccc(/C=C/CN2CCN(CCOC(c3ccccc3)c3ccc(F)cc3)CC2)cc1 (stereo not drawn) | 6.7 | 7.64 | 7.22
O=C(CCCN1CCN(CCCc2ccccc2)CC1)N(Cc1ccccc1)c1ccccn1 | 5.88 | 6.25 | 6.61
c1ccc(CCCN2CCN(CCCCCN(Cc3ccccc3)c3ccccc3)CC2)cc1 | 6.63 | 7.5 | 5.83
Fc1ccc(C(OCCN2CCN(CCCc3ccc(Cl)cc3)CC2)c2ccc(F)cc2)cc1 | 6.81 | 8.09 | 7.3
COc1ccc(OC)c(/C=C/C(=O)N2CCN(CCOC(c3ccc(F)cc3)c3ccc(F)cc3)CC2)c1 | 6.69 | 6.25 | –
COc1ccc(N(CCN2CCN(CCCc3ccccc3)CC2)Cc2ccccc2)cc1 | 6.59 | 6.04 | 6.67
c1ccc(CCCN2CCN(CCN(Cc3ccccc3)c3ccccc3)CC2)cc1 | 5.92 | 6.66 | 5.96
COc1ccc(C(OCCN2CCN(C/C=C/c3ccccc3)CC2)c2ccccc2)cc1 (stereo not drawn) | 6.16 | – | –
Fc1ccc(CN(CCCN2CCN(CCCc3ccccc3)CC2)c2ccc(F)cc2)cc1 | 6.48 | 7.86 | 6.82
Cc1ccc(CN(CCN2CCN(CCCc3ccccc3)CC2)c2ccccc2)cc1 | 6.09 | 6.37 | 5.49
COc1cccc(C(OCCN2CCN(C/C=C/c3ccccc3)CC2)c2cccc(Br)c2)c1 (stereo not drawn) | 6.13 | 6.88 | 6.05
CN(CCc1ccccc1)CCN1CCN(CCCc2ccccc2)CC1 | 5.58 | 6.26 | 6.85
O=C(CN1CCN(CCCc2ccccc2)CC1)N(Cc1ccccc1)c1ccccc1 | 5.54 | 5.97 | 6.28
Fc1ccc(C(OCCN2CCN(C/C=C/c3ccc(Cl)cc3)CC2)c2ccc(F)cc2)cc1 | 6.09 | 7.65 | 6.66
